# According to ChEMBL document CHEMBL1201862, “PubChem BioAssay data set” (2004):
#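 How tested: cells in 96-well plates exposed to compound for 48 hours at five concentrations. GI50 marks 50% less growth.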 The source made the active and inactive calls. No stated cut-off is given here; in the data, active = GI50 up to about 1.1 µM and inactive = higher.
# Key:
# Assay in all cases: inhibition of tumour cell growth, NCI panel, 48 h
# [1] = test system: A498
# [2] = test system: COLO 205
# [3] = test system: EKVX
# [4] = test system: HCT-15
# [5] = test system: IGROV-1
# [6] = test system: KM12
# [7] = test system: MOLT-4
# [8] = test system: Malme-3M
# [9] = test system: NCI-H23
# [10] = test system: OVCAR-4
# [11] = test system: OVCAR-8
# [12] = test system: PC-3
# [13] = test system: SK-MEL-2
# [14] = test system: SNB-75
# [15] = test system: SR
# [16] = test system: SW-620
# [17] = test system: HCT-116
# [18] = test system: NCI-H460
# [19] = test system: UACC-62
# [20] = test system: HL-60
SMILES,GI50 [1],GI50 [2],GI50 [3],GI50 [4] [µM],GI50 [5],GI50 [6],GI50 [7],GI50 [8],GI50 [9],GI50 [10],GI50 [11],GI50 [12],GI50 [13],GI50 [14],GI50 [15],GI50 [16],GI50 [17],GI50 [18],GI50 [19],GI50 [20]
C=CCn1c(-c2ccc(/N=N/Nc3ccc(-c4n[nH]c(=S)n4CC=C)cc3)cc2)n[nH]c1=S,> 100 µM (inactive),2.94 µM (inactive),5.55 µM (inactive),4.59,3.34 µM (inactive),3.04 µM (inactive),2.01 µM (inactive),3.57 µM (inactive),3.22 µM (inactive),2.53 µM (inactive),2.8 µM (inactive),3.17 µM (inactive),2.67 µM (inactive),3.93 µM (inactive),2.84 µM (inactive),7.13 µM (inactive),,,,
COc1cc(C(=O)/C=C/c2ccc(OCC#N)cc2)cc(OC)c1OC,21.4 µM (inactive),20 µM (inactive),50.8 µM (inactive),19.5,38.4 µM (inactive),16 µM (inactive),27 µM (inactive),17.4 µM (inactive),19.5 µM (inactive),37.4 µM (inactive),29.5 µM (inactive),18.7 µM (inactive),,> 10 µM (inactive),23.6 µM (inactive),18.9 µM (inactive),13.9 µM (inactive),28.8 µM (inactive),21.2 µM (inactive),
COc1cc(C)c(S(=O)(=O)N(CCCN)OCCCN)c(C)c1C,39.4 µM (inactive),21 µM (inactive),31.8 µM (inactive),> 100,20.2 µM (inactive),40.8 µM (inactive),13 µM (inactive),21.9 µM (inactive),31.1 µM (inactive),> 100 µM (inactive),38.5 µM (inactive),25.4 µM (inactive),22.2 µM (inactive),34.2 µM (inactive),17.6 µM (inactive),46.1 µM (inactive),29.6 µM (inactive),47.1 µM (inactive),48.1 µM (inactive),
O=C(O)Cc1ccc([N+](=O)[O-])cc1[N+](=O)[O-],> 100 µM (inactive),> 100 µM (inactive),> 100 µM (inactive),> 100,> 100 µM (inactive),> 100 µM (inactive),> 100 µM (inactive),> 100 µM (inactive),> 100 µM (inactive),> 100 µM (inactive),> 100 µM (inactive),> 100 µM (inactive),> 100 µM (inactive),> 100 µM (inactive),,> 100 µM (inactive),> 100 µM (inactive),> 100 µM (inactive),> 100 µM (inactive),> 100 µM (inactive)
CCCCCCC(=O)OC[n+]1cccc(-c2c(COC(=O)NC(C)C)c(COC(=O)NC(C)C)c3n2CCC3)c1,23 µM (inactive),51.4 µM (inactive),> 100 µM (inactive),42.6,> 41.8 µM (inactive),> 100 µM (inactive),11.6 µM (inactive),38.9 µM (inactive),26.9 µM (inactive),33.7 µM (inactive),34.4 µM (inactive),> 56.8 µM (inactive),26.7 µM (inactive),35.4 µM (inactive),,28.4 µM (inactive),32.8 µM (inactive),14.5 µM (inactive),20 µM (inactive),8.57 µM (inactive)
COc1cc2c(cc1OC)CCc1cc(OC)c(OC)cc1CC2,> 100 µM (inactive),> 100 µM (inactive),> 100 µM (inactive),> 100,> 100 µM (inactive),> 100 µM (inactive),> 100 µM (inactive),> 100 µM (inactive),> 100 µM (inactive),> 100 µM (inactive),> 100 µM (inactive),> 100 µM (inactive),> 100 µM (inactive),> 100 µM (inactive),> 100 µM (inactive),> 100 µM (inactive),> 100 µM (inactive),> 100 µM (inactive),> 100 µM (inactive),
CNC(=O)C1(C#N)C(c2ccccc2)C(C#N)(C(=O)NC)C1c1ccccc1 (stereo unspecified),> 100 µM (inactive),> 100 µM (inactive),> 100 µM (inactive),> 100,> 100 µM (inactive),> 100 µM (inactive),> 100 µM (inactive),,> 100 µM (inactive),> 100 µM (inactive),> 100 µM (inactive),> 100 µM (inactive),> 100 µM (inactive),> 100 µM (inactive),> 100 µM (inactive),> 100 µM (inactive),> 100 µM (inactive),> 100 µM (inactive),,
N=c1sc2ccccc2n1CC[S-].c1ccc2c(c1)sc1[n+]2CCS1,14.7 µM (inactive),14.3 µM (inactive),22 µM (inactive),16.7,12.5 µM (inactive),17.5 µM (inactive),3 µM (inactive),17.7 µM (inactive),16.1 µM (inactive),16.4 µM (inactive),17.1 µM (inactive),29.8 µM (inactive),18.2 µM (inactive),41.5 µM (inactive),,17.1 µM (inactive),16.9 µM (inactive),14.4 µM (inactive),14 µM (inactive),22.5 µM (inactive)
